# Laboratory results from paper PMC7769008 (Journal of medicinal chemistry, 2020).
# Settings: pH 7.4
row,Structure (SMILES),PAMPA [×10⁻⁶ cm/s]
1,"Nc1nnc2n(CCc3ccccc3)c(=O)c3cc(F)ccc3n12 [Compound 16, 1-Amino-7-fluoro-4-phenethyl-[1,2,4]triazolo[4,3-a]quinazolin-5(4H)-one]",885
2,"O=c1c2cc(F)ccc2n2cnnc2n1CCc1ccccc1 [Compound 18, 7-Fluoro-4-phenethyl-[1,2,4]triazolo[4,3-a]quinazolin-5(4H)-one]",924
3,"CCn1c(=O)c2ccccc2n2c(=S)[nH]nc12 [Compound 20, 4-Ethyl-1-thioxo-2,4-dihydro-[1,2,4]triazolo[4,3-a]quinazolin-5(1H)-one]",427
4,"O=c1c2cc(F)ccc2n2c(=S)[nH]nc2n1CCc1ccccc1 [Compound 40, 7-Fluoro-4-phenethyl-1-thioxo-2,4-dihydro-[1,2,4]triazolo[4,3-a]quinazolin-5(1H)-one]",77.0
5,"O=c1c2cc(Br)ccc2n2c(=S)[nH]nc2n1CCc1ccccc1 [Compound 41, 7-Bromo-4-phenethyl-1-thioxo-2,4-dihydro-[1,2,4]triazolo[4,3-a]quinazolin-5(1H)-one]",162
6,"CC(=O)Nc1ccc2c(c1)c(=O)n(CCc1ccccc1)c1n[nH]c(=S)n21 [Compound 44, N-(5-Oxo-4-phenethyl-1-thioxo-1,2,4,5-tetrahydro-[1,2,4]-triazolo[4,3-a]quinazolin-7-yl)acetamide]",253
7,"CN(C)c1ccc2c(c1)c(=O)n(CCc1ccccc1)c1n[nH]c(=S)n21 [Compound 45, 7-(Dimethylamino)-4-phenethyl-1-thioxo-2,4-dihydro-[1,2,4]-triazolo[4,3-a]quinazolin-5(1H)-one]",356
8,"O=c1c2ccc(F)cc2n2c(=S)[nH]nc2n1CCc1ccccc1 [Compound 47, 8-Fluoro-4-phenethyl-1-thioxo-2,4-dihydro-[1,2,4]triazolo[4,3-a]quinazolin-5(1H)-one]",91.0
9,"O=c1c2cccc(F)c2n2c(=S)[nH]nc2n1CCc1ccccc1 [Compound 48, 9-Fluoro-4-phenethyl-1-thioxo-2,4-dihydro-[1,2,4]triazolo[4,3-a]quinazolin-5(1H)-one]",141
10,"O=c1c2ccncc2n2c(=S)[nH]nc2n1CCc1ccccc1 [Compound 50, 4-Phenethyl-1-thioxo-2,4-dihydropyrido[4,3-e][1,2,4]triazolo-[4,3-a]pyrimidin-5(1H)-one]",202
11,"O=c1c2cc(F)ccc2n2c(=S)[nH]nc2n1Cc1ccccc1 [Compound 52, 4-Benzyl-7-fluoro-1-thioxo-2,4-dihydro-[1,2,4]triazolo[4,3-a]-quinazolin-5(1H)-one]",841
12,"O=c1c2cc(Cl)ccc2n2c(=S)[nH]nc2n1CCC(F)(F)F [Compound 55, 7-Chloro-1-thioxo-4-(3,3,3-trifluoropropyl)-2,4-dihydro-[1,2,4]-triazolo[4,3-a]quinazolin-5(1H)-one]",257
13,"CNC(=S)N1CN(CCc2ccccc2)C(=O)c2cc(F)ccc21 [Compound 62, 6-Fluoro-N-methyl-4-oxo-3-phenethyl-3,4-dihydroquinazoline-1(2H)-carbothioamide]",161
14,"O=c1c2cc(F)ccc2n2c(=S)[nH]nc2n1CCCO [Compound 66, 7-Fluoro-4-(3-hydroxypropyl)-1-thioxo-2,4-dihydro-[1,2,4]-triazolo[4,3-a]quinazolin-5(1H)-one]",222
15,"CC(CN(C)C)n1c(=O)c2cc(F)ccc2n2c(=S)[nH]nc12 (centres unmarked) [Compound 71, 4-(1-(Dimethylamino)propan-2-yl)-7-fluoro-1-thioxo-2,4-dihydro-[1,2,4]triazolo[4,3-a]quinazolin-5(1H)-one]",186
16,"CC(=O)NCCCn1c(=O)c2cc(F)ccc2n2c(=S)[nH]nc12 [Compound 73, N-(3-(7-Fluoro-5-oxo-1-thioxo-1,2-dihydro-[1,2,4]triazolo[4,3-a]-quinazolin-4(5H)-yl)propyl)acetamide]",18.0
17,"O=C(NCCCn1c(=O)c2cc(F)ccc2n2c(=S)[nH]nc12)c1ccccc1 [Compound 74, N-(3-(7-Fluoro-5-oxo-1-thioxo-1,2-dihydro-[1,2,4]triazolo[4,3-a]-quinazolin-4(5H)-yl)propyl)benzamide]",267
18,"O=c1c2cc(F)ccc2n2c(=S)[nH]nc2n1CC1CC1 [Compound 79, 4-(Cyclopropylmethyl)-7-fluoro-1-thioxo-2,4-dihydro-[1,2,4]-triazolo[4,3-a]quinazolin-5(1H)-one]",46.0
19,"O=c1c2cc(F)ccc2n2c(=S)[nH]nc2n1CCc1ccc(Cl)cc1 [Compound 82, 4-(4-Chlorophenethyl)-7-fluoro-1-thioxo-2,4-dihydro-[1,2,4]-triazolo[4,3-a]quinazolin-5(1H)-one]",<1
20,"O=c1c2cc(F)ccc2n2c(=S)[nH]nc2n1CCc1cccnc1 [Compound 84, 7-Fluoro-4-(2-(pyridin-3-yl)ethyl)-1-thioxo-2,4-dihydro-[1,2,4]-triazolo[4,3-a]quinazolin-5(1H)-one]",<1
21,"CC(C)(C)OC(=O)N1CC(CCn2c(=O)c3cc(F)ccc3n3c(=S)[nH]nc23)C1 [Compound 86, tert-Butyl 3-(2-(7-fluoro-5-oxo-1-thioxo-1,2-dihydro-[1,2,4]-triazolo[4,3-a]quinazolin-4(5H)-yl)ethyl)azetidine-1-carboxylate]",229
22,"O=c1c2cc(F)ccc2n2c(=S)[nH]nc2n1CCN1CCCCC1 [Compound 88, 7-Fluoro-4-(2-(piperidin-1-yl)ethyl)-1-thioxo-2,4-dihydro-[1,2,4]-triazolo[4,3-a]quinazolin-5(1H)-one]",358
23,"O=c1c2cc(F)ccc2n2c(=S)[nH]nc2n1CCN1CCC(F)(F)CC1 [Compound 89, 4-(2-(4,4-Difluoropiperidin-1-yl)ethyl)-7-fluoro-1-thioxo-2,4-di-hydro-[1,2,4]triazolo[4,3-a]quinazolin-5(1H)-one]",234
24,"O=c1c2cc(F)ccc2n2c(=S)[nH]nc2n1CCN1CCOCC1 [Compound 90, 7-Fluoro-4-(2-morpholinoethyl)-1-thioxo-2,4-dihydro-[1,2,4]-triazolo[4,3-a]quinazolin-5(1H)-one]",67.0
25,"O=c1c2cc(F)ccc2n2c(=S)[nH]nc2n1CCC1CCC(F)(F)CC1 [Compound 93, 4-(2-(4,4-Difluorocyclohexyl)ethyl)-7-fluoro-1-thioxo-2,4-dihydro-[1,2,4]triazolo[4,3-a]quinazolin-5(1H)-one]",201
26,"CC(C)(C)OC(=O)NCCCCCC(=O)NCCCn1c(=O)c2cc(F)ccc2n2c(=S)[nH]nc12 [Compound 101, tert-Butyl (6-((3-(7-fluoro-5-oxo-1-thioxo-1,2-dihydro-[1,2,4]-triazolo[4,3-a]quinazolin-4(5H)-yl)propyl)amino)-6-oxohexyl)-carbamate]",405
